Assay results from article PMC11637875, “Discovery of novel PARP1/NRP1 dual-targeting inhibitors with strong antitumor potency” (Frontiers in Pharmacology, 2024).

Key:
[1] = system: MDA-MB-231 cells; assay: In vitro antiproliferation assay (MTT); format: cell-based; settings: Homo sapiens, MDA-MB-231
Experimental: Cell viability was measured by MTT assays. […] Afterward, the medium was removed. MTT (5 mg/mL) was dissolved in phosphate-buffered saline (PBS) and filter-sterilized, and then, 20 μL of the prepared MTT solution was added to each well, and the cells were incubated for another 4 h until a purple precipitate was visible. The supernatant was removed by centrifugation, and DMSO (150 μL/well) was added to dissolve the insoluble crystals. The absorbance was determined using an enzyme-linked immunosorbent assay reader at a test wavelength of 570 nm. The assays were performed three times in a parallel manner. The non-linear regression was used to plot a Dose-Response-Inhibition to determine the value of the IC50. […] The data were analyzed using GraphPad Prism 9 software.

[2] = target: NuaK2 (Homo sapiens, UniProt Q9H093); assay: Selectivity profile (123 kinase panel); format: biochemical
[3] = target: BLK (Homo sapiens, UniProt P51451); assay: Selectivity profile (123 kinase panel); format: biochemical
[4] = target: DYRK2 (Homo sapiens, UniProt Q92630); assay: Selectivity profile (123 kinase panel); format: biochemical
[5] = target: AMPKα1/β1/γ1 (Homo sapiens, UniProt P54619+Q13131+Q9Y478); assay: Selectivity profile (123 kinase panel); format: biochemical
[6] = target: AurA (Homo sapiens, UniProt O14965); assay: Selectivity profile (123 kinase panel); format: biochemical
[7] = target: PARP3 (Homo sapiens, UniProt Q9Y6F1); assay: Selectivity profile (other isoforms of PARP and NRP family); format: biochemical
[8] = target: Erk5 (Homo sapiens, UniProt Q13164); assay: Selectivity profile (123 kinase panel); format: biochemical
[9] = target: MET (Homo sapiens, UniProt P08581); assay: Selectivity profile (123 kinase panel); format: biochemical
[10] = target: GSK3β (Homo sapiens, UniProt P49841); assay: Selectivity profile (123 kinase panel); format: biochemical
[11] = target: JAK1 (Homo sapiens, UniProt P23458); assay: Selectivity profile (123 kinase panel); format: biochemical
[12] = target: HIPK3 (Homo sapiens, UniProt Q9H422); assay: Selectivity profile (123 kinase panel); format: biochemical
[13] = target: ALK (Homo sapiens, UniProt Q9UM73); assay: Selectivity profile (123 kinase panel); format: biochemical
[14] = target: CK1γ1 (Homo sapiens, UniProt Q9HCP0); assay: Selectivity profile (123 kinase panel); format: biochemical
[15] = target: T1, PARP1 (Homo sapiens, UniProt P09874); assay: In vitro PARP1 inhibition assay (chemiluminescence); format: biochemical; settings: PARP1 enzyme 0.6 units/well
T1 construct: purchased Abcam
Experimental: In each well, 50 μL of 1 × PARP1 buffer was added and incubated for 30 min at room temperature. The 1 × PARP1 buffer was removed from the wells, and then 25 μL of 1 × PARP1 cocktail was added to each well along with varying doses of compounds and PARP1 enzyme (0.6 units/well). Incubated and washed twice with PBS and 0.1% Triton X-100. Then added 50 μL Strep-HRP and washed twice. Equal volumes (100 μL) of PeroxyGlow A and B were added to each well and immediately take chemiluminescent readings. Data were analyzed by GraphPad Prism 9 software based on chemiluminescence readings of chemiluminescent substrates of Strep-HRP in each well. The IC50 value was were calculated by nonlinear curve fitting in GraphPad Prism 9.

[16] = target: MST2 (Homo sapiens, UniProt Q13188); assay: Selectivity profile (123 kinase panel); format: biochemical
[17] = target: NIM1K (Homo sapiens, UniProt Q8IY84); assay: Selectivity profile (123 kinase panel); format: biochemical
[18] = target: HIPK1 (Homo sapiens, UniProt Q86Z02); assay: Selectivity profile (123 kinase panel); format: biochemical
[19] = target: HIPK2 (Homo sapiens, UniProt Q9H2X6); assay: Selectivity profile (123 kinase panel); format: biochemical
[20] = In vivo pharmacokinetic studies; design: species or system SD rats; settings: Sprague-Dawley (SD), rat, plasma, po, 10 mg/kg
Experimental: Blood samples (0.25 mL) were collected at 0.25, 0.5, 1, 2, 4, 8, 16, and 24 h after administration and centrifuged to obtain the plasma fraction. In a 96-well plate, the plasma sample (50 μL) was transferred, and the internal standard methanol/acetonitrile (1:1, v/v) solution (200 μL) was added. After vortexing for 5 min, the mixture was centrifuged (12,000 rpm, 5 min) and the supernatant was obtained (60.0 μL). Liquid chromatography and tandem mass spectrometry (LC-MS/MS) system was used to study pharmacokinetics. The data were processed by Phoenix.

[21] = target: AXL (Homo sapiens, UniProt P30530); assay: Selectivity profile (123 kinase panel); format: biochemical
[22] = target: FGFR4 (Homo sapiens, UniProt P22455); assay: Selectivity profile (123 kinase panel); format: biochemical
[23] = target: KIT (Homo sapiens, UniProt P10721); assay: Selectivity profile (123 kinase panel); format: biochemical
[24] = target: BRAF (Homo sapiens, UniProt P15056); assay: Selectivity profile (123 kinase panel); format: biochemical
[25] = target: NRP2 (Homo sapiens, UniProt O60462); assay: Selectivity profile (other isoforms of PARP and NRP family); format: biochemical
[26] = target: MLK3 (Homo sapiens, UniProt Q16584); assay: Selectivity profile (123 kinase panel); format: biochemical
[27] = target: LCK (Homo sapiens, UniProt P06239); assay: Selectivity profile (123 kinase panel); format: biochemical
[28] = target: EPHA8 (Homo sapiens, UniProt P29322); assay: Selectivity profile (123 kinase panel); format: biochemical
[29] = target: LYNa (Homo sapiens, UniProt P07948); assay: Selectivity profile (123 kinase panel); format: biochemical
[30] = target: MST3 (Homo sapiens, UniProt Q9Y6E0); assay: Selectivity profile (123 kinase panel); format: biochemical

Sequence of CK1γ1 (Q9HCP0 whole entry): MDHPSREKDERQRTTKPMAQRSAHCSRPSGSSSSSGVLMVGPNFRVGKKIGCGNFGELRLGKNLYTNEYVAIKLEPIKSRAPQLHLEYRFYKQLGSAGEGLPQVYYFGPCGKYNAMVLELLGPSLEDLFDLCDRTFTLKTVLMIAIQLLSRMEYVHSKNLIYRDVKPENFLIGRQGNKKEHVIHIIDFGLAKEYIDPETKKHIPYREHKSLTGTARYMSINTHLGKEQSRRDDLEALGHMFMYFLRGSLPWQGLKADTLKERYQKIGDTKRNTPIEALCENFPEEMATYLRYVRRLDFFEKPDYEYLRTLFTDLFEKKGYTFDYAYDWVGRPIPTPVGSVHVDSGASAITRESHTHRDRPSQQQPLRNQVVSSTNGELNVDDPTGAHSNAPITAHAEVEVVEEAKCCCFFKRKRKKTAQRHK
Sequence of AXL (P30530 26-894): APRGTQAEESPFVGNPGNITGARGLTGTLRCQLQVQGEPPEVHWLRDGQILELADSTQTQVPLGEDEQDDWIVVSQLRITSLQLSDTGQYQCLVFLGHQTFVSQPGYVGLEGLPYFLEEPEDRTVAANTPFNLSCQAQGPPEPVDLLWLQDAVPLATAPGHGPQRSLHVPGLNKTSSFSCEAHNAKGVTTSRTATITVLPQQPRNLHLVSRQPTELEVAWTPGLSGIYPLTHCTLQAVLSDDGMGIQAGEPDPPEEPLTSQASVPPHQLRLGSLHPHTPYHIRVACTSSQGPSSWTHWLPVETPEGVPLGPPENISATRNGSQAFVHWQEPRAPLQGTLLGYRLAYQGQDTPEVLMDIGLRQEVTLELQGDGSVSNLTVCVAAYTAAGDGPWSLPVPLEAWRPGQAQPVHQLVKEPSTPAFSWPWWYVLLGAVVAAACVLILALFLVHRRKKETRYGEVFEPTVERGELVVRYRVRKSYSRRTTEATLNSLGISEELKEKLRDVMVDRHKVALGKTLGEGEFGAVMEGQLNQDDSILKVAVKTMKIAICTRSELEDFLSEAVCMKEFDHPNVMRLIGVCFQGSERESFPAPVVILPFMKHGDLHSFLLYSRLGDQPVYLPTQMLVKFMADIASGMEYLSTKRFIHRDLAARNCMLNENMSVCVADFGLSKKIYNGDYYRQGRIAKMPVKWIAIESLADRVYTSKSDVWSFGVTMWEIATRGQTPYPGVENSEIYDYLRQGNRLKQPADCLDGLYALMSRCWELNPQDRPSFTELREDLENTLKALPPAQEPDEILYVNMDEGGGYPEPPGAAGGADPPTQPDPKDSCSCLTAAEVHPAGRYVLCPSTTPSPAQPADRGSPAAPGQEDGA
Sequence of GSK3β (P49841 whole entry): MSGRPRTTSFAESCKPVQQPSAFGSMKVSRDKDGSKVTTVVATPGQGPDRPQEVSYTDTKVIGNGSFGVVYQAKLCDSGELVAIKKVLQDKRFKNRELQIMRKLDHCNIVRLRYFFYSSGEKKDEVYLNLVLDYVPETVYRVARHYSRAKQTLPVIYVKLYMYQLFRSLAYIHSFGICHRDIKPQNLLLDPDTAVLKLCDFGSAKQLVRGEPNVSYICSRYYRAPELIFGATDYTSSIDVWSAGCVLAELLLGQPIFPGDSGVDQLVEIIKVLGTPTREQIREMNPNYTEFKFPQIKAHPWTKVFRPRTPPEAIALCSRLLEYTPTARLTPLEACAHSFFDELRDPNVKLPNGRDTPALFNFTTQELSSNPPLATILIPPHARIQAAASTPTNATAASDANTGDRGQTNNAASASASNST
Sequence of DYRK2 (Q92630 whole entry): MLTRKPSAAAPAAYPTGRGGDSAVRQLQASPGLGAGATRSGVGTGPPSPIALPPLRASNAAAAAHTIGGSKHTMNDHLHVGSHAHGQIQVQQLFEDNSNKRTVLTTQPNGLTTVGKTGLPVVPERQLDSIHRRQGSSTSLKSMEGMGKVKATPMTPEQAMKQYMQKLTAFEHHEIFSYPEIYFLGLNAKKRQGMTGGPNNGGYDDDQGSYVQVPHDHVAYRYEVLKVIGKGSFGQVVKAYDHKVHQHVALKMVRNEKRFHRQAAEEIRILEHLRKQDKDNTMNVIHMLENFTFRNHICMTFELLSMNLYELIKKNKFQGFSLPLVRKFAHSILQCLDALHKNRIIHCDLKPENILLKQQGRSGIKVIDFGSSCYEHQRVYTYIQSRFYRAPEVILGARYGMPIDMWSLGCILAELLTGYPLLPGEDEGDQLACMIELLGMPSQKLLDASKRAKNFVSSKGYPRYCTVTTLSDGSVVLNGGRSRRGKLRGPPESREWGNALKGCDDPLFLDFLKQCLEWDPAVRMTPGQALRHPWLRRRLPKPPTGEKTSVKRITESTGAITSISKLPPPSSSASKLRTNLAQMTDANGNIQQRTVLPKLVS
Sequence of FGFR4 (P22455 22-802, species assumed): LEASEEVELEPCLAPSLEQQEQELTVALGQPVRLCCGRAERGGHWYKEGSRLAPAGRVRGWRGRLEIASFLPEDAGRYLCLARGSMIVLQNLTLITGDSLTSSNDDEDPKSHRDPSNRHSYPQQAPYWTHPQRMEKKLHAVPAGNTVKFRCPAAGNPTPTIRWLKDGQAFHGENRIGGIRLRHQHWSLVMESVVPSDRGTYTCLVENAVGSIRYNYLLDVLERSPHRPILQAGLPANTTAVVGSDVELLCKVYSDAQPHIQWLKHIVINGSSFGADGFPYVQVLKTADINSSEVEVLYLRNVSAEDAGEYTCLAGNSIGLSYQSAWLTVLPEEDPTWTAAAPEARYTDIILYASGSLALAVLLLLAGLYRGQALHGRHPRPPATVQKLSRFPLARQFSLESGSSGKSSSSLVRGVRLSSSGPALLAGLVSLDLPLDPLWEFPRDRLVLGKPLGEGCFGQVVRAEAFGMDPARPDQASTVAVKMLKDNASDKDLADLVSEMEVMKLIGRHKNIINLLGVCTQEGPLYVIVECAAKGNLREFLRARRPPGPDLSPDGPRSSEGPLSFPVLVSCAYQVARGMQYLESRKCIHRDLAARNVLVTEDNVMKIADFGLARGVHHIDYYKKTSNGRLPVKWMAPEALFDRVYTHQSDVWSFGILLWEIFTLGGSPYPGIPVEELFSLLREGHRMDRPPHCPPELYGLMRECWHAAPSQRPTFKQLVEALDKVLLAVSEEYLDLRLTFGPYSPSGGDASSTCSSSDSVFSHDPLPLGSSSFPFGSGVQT
Sequence of Erk5 (Q13164 whole entry, species assumed): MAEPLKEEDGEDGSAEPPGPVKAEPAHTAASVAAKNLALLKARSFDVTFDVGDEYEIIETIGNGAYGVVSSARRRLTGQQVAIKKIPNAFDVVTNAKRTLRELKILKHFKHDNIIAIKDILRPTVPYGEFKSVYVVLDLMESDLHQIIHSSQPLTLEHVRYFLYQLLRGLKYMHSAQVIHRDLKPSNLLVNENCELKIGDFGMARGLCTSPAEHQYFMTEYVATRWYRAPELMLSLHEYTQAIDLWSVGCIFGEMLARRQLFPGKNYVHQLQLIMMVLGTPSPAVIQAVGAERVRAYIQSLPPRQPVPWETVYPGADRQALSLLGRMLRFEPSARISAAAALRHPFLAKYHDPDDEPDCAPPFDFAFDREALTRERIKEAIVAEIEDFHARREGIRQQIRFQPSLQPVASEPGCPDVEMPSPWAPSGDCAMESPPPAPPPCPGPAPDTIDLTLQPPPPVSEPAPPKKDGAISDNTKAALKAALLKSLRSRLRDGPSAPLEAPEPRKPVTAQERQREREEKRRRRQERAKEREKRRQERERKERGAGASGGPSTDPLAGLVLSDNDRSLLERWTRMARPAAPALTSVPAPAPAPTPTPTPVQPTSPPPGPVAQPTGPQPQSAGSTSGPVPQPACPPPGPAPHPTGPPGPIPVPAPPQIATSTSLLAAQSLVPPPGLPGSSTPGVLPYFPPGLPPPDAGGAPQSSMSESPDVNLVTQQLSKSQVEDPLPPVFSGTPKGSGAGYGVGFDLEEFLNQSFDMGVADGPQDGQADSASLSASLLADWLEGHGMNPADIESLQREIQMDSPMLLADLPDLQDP
Sequence of NRP2 (O60462 21-931): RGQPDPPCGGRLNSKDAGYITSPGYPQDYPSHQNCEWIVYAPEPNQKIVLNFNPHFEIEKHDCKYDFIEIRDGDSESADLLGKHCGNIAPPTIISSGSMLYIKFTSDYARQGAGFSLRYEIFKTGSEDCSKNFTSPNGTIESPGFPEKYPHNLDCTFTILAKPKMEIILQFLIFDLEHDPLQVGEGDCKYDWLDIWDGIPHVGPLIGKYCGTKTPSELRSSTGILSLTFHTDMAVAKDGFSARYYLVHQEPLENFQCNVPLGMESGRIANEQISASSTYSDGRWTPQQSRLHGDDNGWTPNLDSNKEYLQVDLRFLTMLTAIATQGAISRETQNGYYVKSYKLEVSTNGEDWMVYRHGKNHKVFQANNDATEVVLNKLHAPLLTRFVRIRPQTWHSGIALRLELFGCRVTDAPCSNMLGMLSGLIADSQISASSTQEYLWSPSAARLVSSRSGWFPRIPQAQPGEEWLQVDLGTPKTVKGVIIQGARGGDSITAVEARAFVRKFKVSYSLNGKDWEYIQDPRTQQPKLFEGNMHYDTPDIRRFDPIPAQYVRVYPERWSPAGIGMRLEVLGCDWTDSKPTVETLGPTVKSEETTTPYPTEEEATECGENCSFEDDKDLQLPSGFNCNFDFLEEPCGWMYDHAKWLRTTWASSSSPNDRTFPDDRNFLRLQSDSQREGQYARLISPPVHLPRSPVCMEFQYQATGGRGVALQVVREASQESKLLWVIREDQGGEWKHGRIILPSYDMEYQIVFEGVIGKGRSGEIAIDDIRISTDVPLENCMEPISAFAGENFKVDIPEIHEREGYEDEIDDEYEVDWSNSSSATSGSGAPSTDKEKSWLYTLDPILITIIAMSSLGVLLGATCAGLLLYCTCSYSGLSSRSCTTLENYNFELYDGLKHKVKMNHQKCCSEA

- IC50 ([1]; 168 h, concentration needed to reduce cell growth by 50% following 7 days cell treatment, read-out: IC50): 0.21 µM
- IC50 [2]: > 10 µM
- IC50 [3]: > 10 µM
- IC50 [4]: > 10 µM
- IC50 [5]: > 10 µM
- IC50 [6]: > 10 µM
- IC50 [7]: > 10 µM
- IC50 [8]: > 10 µM
- IC50 [9]: > 10 µM
- IC50 [10]: > 10 µM
- IC50 [11]: > 10 µM
- IC50 [12]: > 10 µM
- IC50 [13]: > 10 µM
- IC50 [14]: > 10 µM
- IC50 [15]: 0.00771 ± 0.00039 µM
- IC50 [16]: > 10 µM
- IC50 [17]: > 10 µM
- IC50 [18]: > 10 µM
- IC50 [19]: > 10 µM
- bioavailability [20]: 66.5%
- AUC ([20]; SD rats, p.o): 8020 ng·h/mL
- Cmax ([20]; SD rats, p.o): 812 ng/mL
- half-life ([20]; SD rats, p.o): 2.71 h
- IC50 [21]: > 10 µM
- IC50 [22]: > 10 µM
- IC50 [23]: > 10 µM
- IC50 [24]: > 10 µM
- IC50 [25]: > 10 µM
- IC50 [26]: > 10 µM
- IC50 [27]: > 10 µM
- IC50 [28]: > 10 µM
- IC50 [29]: > 10 µM
- IC50 [30]: > 10 µM
SMILES: NC(N)=NCCC[C@H](NCN1CCN(C(=O)c2cc(Cc3n[nH]c(=O)c4ccccc34)ccc2F)CC1)C(=O)O [PPNR-4]
- inhibition at 2 µM ([1]; 2 μM, read-out: cell inhibition rate): > 80%
